From paper PMC6956567 (Bioorganic & medicinal chemistry letters, 2014)

Experiments:
[1] = target: human TRPV1 (Homo sapiens, UniProt Q8NER1); experiment: FLIPR antagonism of capsaicin; type: cell-based; details: for fold better antagonism than linear derivative 15c: Ki(CAP) versus 15c; for antagonism of capsaicin response, in words: capsaicin 100 nM; for fold more potent than the corresponding racemate: Ki(CAP), (S)-isomer versus racemate
[2] = system: capsaicin-induced hypothermia; experiment: Inhibition of capsaicin-induced hypothermia; type: in vivo, mouse; details: 15 min before 3 mg/kg ip capsaicin, assayed 30 min after capsaicin
[3] = system: CCI-induced cold allodynia; experiment: Bennett model; type: in vivo, rat

Sequence of human TRPV1 (Q8NER1 whole entry): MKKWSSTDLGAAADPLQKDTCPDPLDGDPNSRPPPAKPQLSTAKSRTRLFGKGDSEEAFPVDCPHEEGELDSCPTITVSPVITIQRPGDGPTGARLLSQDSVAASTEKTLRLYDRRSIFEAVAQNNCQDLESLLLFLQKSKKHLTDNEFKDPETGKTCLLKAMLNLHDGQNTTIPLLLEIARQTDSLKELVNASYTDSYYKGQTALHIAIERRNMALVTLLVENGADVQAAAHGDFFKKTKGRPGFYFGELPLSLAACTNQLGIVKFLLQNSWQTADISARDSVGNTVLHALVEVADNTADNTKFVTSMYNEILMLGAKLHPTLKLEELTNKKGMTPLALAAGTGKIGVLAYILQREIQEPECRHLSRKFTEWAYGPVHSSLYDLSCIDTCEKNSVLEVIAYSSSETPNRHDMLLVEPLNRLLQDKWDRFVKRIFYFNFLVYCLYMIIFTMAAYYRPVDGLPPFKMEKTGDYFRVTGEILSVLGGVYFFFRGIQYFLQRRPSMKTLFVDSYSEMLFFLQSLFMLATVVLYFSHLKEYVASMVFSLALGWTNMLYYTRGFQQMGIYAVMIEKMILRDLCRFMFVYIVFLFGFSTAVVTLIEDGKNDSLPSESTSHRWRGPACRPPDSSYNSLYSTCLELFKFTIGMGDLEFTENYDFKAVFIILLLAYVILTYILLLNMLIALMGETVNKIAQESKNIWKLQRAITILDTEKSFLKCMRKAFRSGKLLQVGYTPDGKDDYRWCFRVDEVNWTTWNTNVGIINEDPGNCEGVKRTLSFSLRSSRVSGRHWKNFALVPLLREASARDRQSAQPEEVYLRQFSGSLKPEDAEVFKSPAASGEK

CC(C)CCCc1nc(C(F)(F)F)ccc1CNC(=O)C(C)c1ccc(NS(C)(=O)=O)c(F)c1 (stereo not drawn) [15d]
fold better antagonism than linear derivative 15c [1]: ca. 2 fold

CC(C(=O)NCc1ccc(C(F)(F)F)nc1CCC(C)(C)C)c1ccc(NS(C)(=O)=O)c(F)c1 (stereo not drawn) [15e]
fold better antagonism than linear derivative 15c [1]: ca. 2 fold

CC(C(=O)NCc1ccc(C(F)(F)F)nc1C1CCCCC1)c1ccc(NS(C)(=O)=O)c(F)c1 (stereo not drawn) [15f]
fold better antagonism than linear derivative 15c [1]: 2.5 fold
CAP-induced hypothermia, inhibition ([2]; 0.1 mg/kg po): 24 % inh.
CAP-induced hypothermia, inhibition ([2]; 0.3 mg/kg po): 78 % inh.
Bennett model, maximal possible effect ([3]; 10 mg/kg po): 60 MPE
anti-allodynic activity, max effect ([3]; at 10 mg/kg po): 60%

CCC1CCC(c2nc(C(F)(F)F)ccc2CNC(=O)C(C)c2ccc(NS(C)(=O)=O)c(F)c2)CC1 (stereo not drawn) [15h]
fold increase in potency compared to 15f ([1]; Ki(CAP) versus 15f): 2 fold

CC(C(=O)NCc1ccc(C(F)(F)F)nc1C1CC2CCC1C2)c1ccc(NS(C)(=O)=O)c(F)c1 (stereo not drawn) [15n]
fold less potent than monocycle 15f ([1]; Ki(CAP) versus 15f): 2.5 fold

CC(C)=Cc1nc(C(F)(F)F)ccc1CNC(=O)C(C)c1ccc(NS(C)(=O)=O)c(F)c1 (stereo not drawn) [16a]
antagonism of capsaicin response, in words [1]: moderate antagonistic activity

CCC/C=C\c1nc(C(F)(F)F)ccc1CNC(=O)C(C)c1ccc(NS(C)(=O)=O)c(F)c1 (stereo not drawn) [16c]
fold less potent than saturated derivative 15b ([1]; Ki(CAP) versus 15b): 2 fold

C[C@H](C(=O)NCc1ccc(C(F)(F)F)nc1C1CCCCC1)c1ccc(NS(C)(=O)=O)c(F)c1 [(S)-15f]
fold more potent than the corresponding racemate [1]: 2 fold

CCC1CCC(c2nc(C(F)(F)F)ccc2CNC(=O)[C@@H](C)c2ccc(NS(C)(=O)=O)c(F)c2)CC1 (stereo partly drawn) [(S)-15h]
fold more potent than the corresponding racemate [1]: ca. 2 fold

C[C@H](C(=O)NCc1ccc(C(F)(F)F)nc1C1CCC(C)(C)CC1)c1ccc(NS(C)(=O)=O)c(F)c1 [(S)-15l]
fold more potent than the corresponding racemate [1]: ca. 2 fold

C[C@H](C(=O)NCc1ccc(C(F)(F)F)nc1C1CC2CCC1C2)c1ccc(NS(C)(=O)=O)c(F)c1 (stereo partly drawn) [(S)-15n]
fold more potent than the corresponding racemate [1]: ca. 2 fold

CC1CC=C(c2nc(C(F)(F)F)ccc2CNC(=O)[C@@H](C)c2ccc(NS(C)(=O)=O)c(F)c2)CC1 (stereo partly drawn) [(S)-15p]
fold more potent than the corresponding racemate [1]: ca. 2 fold

C[C@H](C(=O)NCc1ccc(C(F)(F)F)nc1C1=CCC(C(C)(C)C)CC1)c1ccc(NS(C)(=O)=O)c(F)c1 (stereo partly drawn) [(S)-15t]
fold more potent than the corresponding racemate [1]: ca. 2 fold

C[C@H](C(=O)NCc1ccc(C(F)(F)F)nc1C1=CCC(C)(C)CC1)c1ccc(NS(C)(=O)=O)c(F)c1 [(S)-15u]
fold more potent than the corresponding racemate [1]: ca. 2 fold

CC(C(=O)NCc1ccc(C(F)(F)F)nc1Cl)c1ccc(NS(C)(=O)=O)c(F)c1 (stereo not drawn) [compound 8]
antagonism of capsaicin response, in words [1]: weak antagonists

CC(C(=O)NCc1ccc(C(F)(F)F)nc1Br)c1ccc(NS(C)(=O)=O)c(F)c1 (stereo not drawn) [compound 9]
antagonism of capsaicin response, in words [1]: weak antagonists

CC(C)C[C@H](CN)CC(=O)O [pregabalin, reference compound]
anti-allodynic activity, max effect ([3]; at 100 mg/kg): 69%
